Measurements: PubChem BioAssay AID2060618 (Molecular Pharmacology Branch, DTP, NCI, 2025)

Test system: 454973-116-R2-J3-PDC spheroids, percent test/control viability
Experiment: Anticancer human tumor 454973-116-R2-J3-PDC patient-derived pancreatic carcinoma cell line growth inhibition [CLK]
Conditions: spheroids with HUVEC and MSC; for IC50: curve of first compound; for viability, T/C: stronger effect = lower value; active = viability on the fitted dose curve at most 10% of control; inactive = the rest
Excerpt: A high-throughput screen of multi-cell type tumor spheroids was designed to identify active combinations of […] and targeted small molecules. Complex spheroids include a stromal component modeled by human endothelial cells (HUVEC) and fibroblasts modeled by human mesenchymal stem cells (MSCs). The concentration ranges selected for each drug and investigational agent were based upon clinically achievable concentrations if the clinical Cmax of the agent was known.
Compounds. The drugs and investigational agents: cirtuvivint (SM08502; NSC835563), CC-671 (NSC850746), vemurafenib (NSC761431), tapotoclax (NSC804041), sotorasib (NSC818433), adagrasib (NSC831453), MRTX-1133 (NSC836407), BAY2416964 (NSC825713), copanlisib (NSC816437), inavolisib (NSC800729), abemaciclib (NSC768073), osimertinib (NSC779217), entinostat (NSC756642), eltanexor (KPT-8602, NSC794443), venetoclax (NSC766270), ceralasertib (NSC777638), bortezomib (NSC756655), olaparib (NSC753686), talazoparib (NSC767125), alisertib (NSC759677), peposertib (NSC802822), gemcitabine (NSC613327), 5-fluorouracil (NSC19893), SN-38 (NSC673596), oxaliplatin (NSC266046), paclitaxel (NSC125973), and doxorubicin (NSC123127), were obtained from the National Cancer Institute (NCI) Developmental Therapeutics Program Chemical Repository. The FDA-approved anticancer drug set is available from the Developmental Therapeutics Program at https://dtp.cancer.gov/organization/dscb/obtaining/available plates.htm. […] The stock solutions were prepared in dimethyl sulfoxide (DMSO, Sigma-Aldrich, St. Louis, MO, cat. D2650), except for the platinum complexes which were prepared in saline (Quality Biological, Gaithersburg, MD, cat. 114-055-101), at 800-fold the tested concentration and stored at -70 degrees C prior to their use. All drugs and investigational agents were tested over a range starting from a high concentration at or near the clinical Cmax and decreasing in half-log increments. If the clinical Cmax for an agent had not been determined, the highest concentration tested was 10 microM.
Cell Culture. All cells were maintained in an incubator at 37 degrees C and 5% CO2 with 95% humidity. The PDC lines were cultured according to standard operating procedures established by the NCI PDMR. Briefly, all PDCs were thawed and cultured in Matrigel-coated flasks prepared with a working solution of 1X Ham's F-12 nutrient mix, without supplementation (Invitrogen, Waltham, MA, cat. 11765054), 100 U/mL penicillin-streptomycin (Invitrogen, cat. 15140122), and 2.5% Matrigel (Corning Inc., Corning, NY, cat. 354248) for the first three passages. The 947758-054-R-J2-PDC line was cultured in 6B/Colon 1A media, which includes advanced DMEM/F-12 (Thermo Fisher Scientific, cat. 12634028), 10 mM HEPES (Thermo Fisher Scientific, cat. 15630080), 1X GlutaMAX supplement (Thermo Fisher Scientific, cat. 35050061), 0.1 mg/mL primocin (InvivoGen, cat. ant-pm-2), 10% defined fetal bovine serum, heat inactivated (HyClone Laboratories Inc., cat. SH30070.03HI), 1.25 mM N-Acetyl-L-cysteine (Sigma-Aldrich, cat. A9165), 10 mM nicotinamide (Sigma-Aldrich, cat. N0636), 1X B-27 supplement (Thermo Fisher Scientific, cat. 17504044), 1X N-2 supplement (Thermo Fisher Scientific, cat. 17502048), and 10 microM Y-27632 dihydrochloride (Tocris Bioscience, cat. 1254). The 876862-298-R-J1-PDC was cultured in 6E media, which includes all 6B/Colon 1A media components plus 50% L-WRN conditioned media (ATCC, cat. CRL-3276), 50 ng/mL recombinant human EGF recombinant protein (hEGF; Thermo Fisher Scientific, cat. PHG0311), 10 ng/mL recombinant human fibroblast growth factor 10 (hGFG-10; PeproTech, cat. 100-26), 1 ng/mL recombinant human fibroblast growth factor 2 (hFGF-2; PeproTech, cat. 100-18B), and 1 µM prostaglandin E2 (PGE2; Tocris, cat. 2296). The 227483-062-R1-J1-PDC line was cultured in Panc media, containing all 6E components except hFGF-2, with the addition of 500 nM SB-431542 (Selleckchem, cat. S1067) and 10 nM gastrin (Tocris, cat. 3006). […]

[1] = second compound 0.0316 µM, first compound 0.0316 µM
[2] = second compound 0.0316 µM, first compound 0.1 µM
[3] = second compound 0.0316 µM, first compound 0.316 µM
[4] = second compound 0.0316 µM, first compound 1 µM
[5] = second compound 0.0316 µM, first compound 3.16 µM
[6] = second compound 0.0316 µM, first compound 10 µM
[7] = second compound 0.1 µM, first compound 0.0316 µM
[8] = second compound 0.1 µM, first compound 0.1 µM
[9] = second compound 0.1 µM, first compound 0.316 µM
[10] = second compound 0.1 µM, first compound 1 µM
[11] = second compound 0.1 µM, first compound 3.16 µM
[12] = second compound 0.1 µM, first compound 10 µM
[13] = second compound 0.316 µM, first compound 0.0316 µM
[14] = second compound 0.316 µM, first compound 0.1 µM
[15] = second compound 0.316 µM, first compound 0.316 µM
[16] = second compound 0.316 µM, first compound 1 µM
[17] = second compound 0.316 µM, first compound 3.16 µM
[18] = second compound 0.316 µM, first compound 10 µM
[19] = second compound 1 µM, first compound 0.0316 µM
[20] = second compound 1 µM, first compound 0.1 µM
[21] = second compound 1 µM, first compound 0.316 µM
[22] = second compound 1 µM, first compound 1 µM
[23] = second compound 1 µM, first compound 3.16 µM
[24] = second compound 1 µM, first compound 10 µM
[25] = second compound 3.16 µM, first compound 0.0316 µM
[26] = second compound 3.16 µM, first compound 0.1 µM
[27] = second compound 3.16 µM, first compound 0.316 µM
[28] = second compound 3.16 µM, first compound 1 µM
[29] = second compound 3.16 µM, first compound 3.16 µM
[30] = second compound 3.16 µM, first compound 10 µM
[31] = second compound 10 µM, first compound 0.0316 µM
[32] = second compound 10 µM, first compound 0.1 µM
[33] = second compound 10 µM, first compound 0.316 µM
[34] = second compound 10 µM, first compound 1 µM
[35] = second compound 10 µM, first compound 3.16 µM
[36] = second compound 10 µM, first compound 10 µM
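Note: spheroids exposed to compounds for 7 days before readout.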

C=C(F)C(=O)N1CCN(c2nc(OCC3CCCN3C)nc3c2CCN(c2cccc4cccc(Cl)c24)C3)CC1CC#N (centres undefined) + CN1CCN(c2cc(C(=O)Nc3cc4cc(-c5cnn(C)c5)ccc4cn3)ccn2)CC1
4990 nM: IC50 (second compound 0.1 µM)
inactive: viability, T/C [1] 97.8% | viability, T/C [2] 109% | viability, T/C [3] 98.9% | viability, T/C [4] 101% | viability, T/C [5] 101% | viability, T/C [7] 75.4% | viability, T/C [8] 82.9% | viability, T/C [9] 80.2% | viability, T/C [10] 81% | viability, T/C [11] 91.9%
active: viability, T/C [6] 3.09% | viability, T/C [12] 0.93% | viability, T/C [13] 1.92% | viability, T/C [14] 2.64% | viability, T/C [15] 2.38% | viability, T/C [16] 2.24% | viability, T/C [17] 1.56% | viability, T/C [18] 0.09% | viability, T/C [19] 0.15% | viability, T/C [20] 0.21% | viability, T/C [21] 2.03% | viability, T/C [22] 0.11% | viability, T/C [23] 0.1% | viability, T/C [24] 1.24% | viability, T/C [25] 0.17% | viability, T/C [26] 2.27% | viability, T/C [27] 0.55% | viability, T/C [28] 0.15% | viability, T/C [29] 0.12% | viability, T/C [30] 1% | viability, T/C [31] 1.46% | viability, T/C [32] 0.37% | viability, T/C [33] 0.27% | viability, T/C [34] 0.68% | viability, T/C [35] 0.23% | viability, T/C [36] 0.25%
5760 nM: IC50 (second compound 0.0316 µM)
< 31.6 nM: IC50 (second compound 0.316 µM) | IC50 (second compound 1 µM) | IC50 (second compound 3.16 µM) | IC50 (second compound 10 µM)

CC(CO)NC(=O)c1cc(-c2ccc(Cl)cc2)nn(-c2cnn(C)c2)c1=O (centres undefined) + CN1CCN(c2cc(C(=O)Nc3cc4cc(-c5cnn(C)c5)ccc4cn3)ccn2)CC1
active: viability, T/C [13] 1.94% | viability, T/C [14] 2.45% | viability, T/C [15] 2.27% | viability, T/C [16] 2.92% | viability, T/C [17] 2.59% | viability, T/C [18] 4.2% | viability, T/C [19] 0.11% | viability, T/C [20] 0.93% | viability, T/C [21] 2.47% | viability, T/C [22] 0.11% | viability, T/C [23] 0.09% | viability, T/C [24] 0.42% | viability, T/C [25] 0.17% | viability, T/C [26] 0.17% | viability, T/C [27] 0.24% | viability, T/C [28] 0.18% | viability, T/C [29] 0.16% | viability, T/C [30] 0.13% | viability, T/C [31] 1.96% | viability, T/C [32] 0.22% | viability, T/C [33] 0.37% | viability, T/C [34] 2.01% | viability, T/C [35] 0.24% | viability, T/C [36] 0.36%
< 31.6 nM: IC50 (second compound 0.316 µM) | IC50 (second compound 1 µM) | IC50 (second compound 3.16 µM) | IC50 (second compound 10 µM)
inactive: viability, T/C [1] 97.5% | viability, T/C [2] 97.8% | viability, T/C [3] 95.6% | viability, T/C [4] 105% | viability, T/C [5] 96.5% | viability, T/C [6] 68.4% | viability, T/C [7] 76.9% | viability, T/C [8] 88.5% | viability, T/C [9] 80.6% | viability, T/C [10] 86% | viability, T/C [11] 82% | viability, T/C [12] 54.2%
> 10000 nM: IC50 (second compound 0.0316 µM) | IC50 (second compound 0.1 µM)
